target: T1, human TRH-DE (Homo sapiens, UniProt Q9UKU6); test: TRH-DE inhibition test (RapidFire MS measurement of product Cyclo (His-Pro)); format: biochemical; settings: membrane fraction of Expi 293 cells expressing human TRH-DE; 10 μM TRH substrate; room temperature, 2 hours; 16-point concentration test
T1 construct: expressed in transfected cells; host or cells: Expi 293 cells (transient expression), membrane fraction
T1 sequence (Q9UKU6 1-1069): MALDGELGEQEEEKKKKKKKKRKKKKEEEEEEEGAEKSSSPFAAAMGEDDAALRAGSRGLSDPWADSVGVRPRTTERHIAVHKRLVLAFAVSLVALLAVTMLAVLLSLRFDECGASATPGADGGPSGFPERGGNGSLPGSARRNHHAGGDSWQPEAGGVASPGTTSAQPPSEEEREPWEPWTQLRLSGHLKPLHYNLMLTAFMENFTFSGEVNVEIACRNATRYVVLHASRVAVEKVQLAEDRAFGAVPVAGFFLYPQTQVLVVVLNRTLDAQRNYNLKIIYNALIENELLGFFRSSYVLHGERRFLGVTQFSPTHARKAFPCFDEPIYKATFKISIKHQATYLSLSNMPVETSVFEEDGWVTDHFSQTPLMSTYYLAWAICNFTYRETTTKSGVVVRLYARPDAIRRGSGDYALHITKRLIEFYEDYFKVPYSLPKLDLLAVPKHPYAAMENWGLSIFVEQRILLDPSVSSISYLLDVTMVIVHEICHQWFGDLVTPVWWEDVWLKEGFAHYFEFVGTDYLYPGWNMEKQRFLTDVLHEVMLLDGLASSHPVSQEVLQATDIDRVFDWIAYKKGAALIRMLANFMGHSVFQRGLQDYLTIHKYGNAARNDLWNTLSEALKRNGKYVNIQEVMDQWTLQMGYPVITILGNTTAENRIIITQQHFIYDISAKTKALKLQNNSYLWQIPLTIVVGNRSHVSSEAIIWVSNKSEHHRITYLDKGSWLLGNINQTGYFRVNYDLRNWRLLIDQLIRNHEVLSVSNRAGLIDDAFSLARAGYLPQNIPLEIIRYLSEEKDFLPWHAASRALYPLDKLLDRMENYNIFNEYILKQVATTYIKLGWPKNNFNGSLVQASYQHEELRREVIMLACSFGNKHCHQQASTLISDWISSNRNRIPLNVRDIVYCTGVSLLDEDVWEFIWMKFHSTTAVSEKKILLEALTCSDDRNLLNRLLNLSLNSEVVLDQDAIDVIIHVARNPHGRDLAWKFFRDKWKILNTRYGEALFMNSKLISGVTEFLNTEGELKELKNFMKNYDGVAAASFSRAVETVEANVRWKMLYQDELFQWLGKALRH
Method in brief: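 Membrane fraction from Expi 293 cells transiently expressing human TRH-DE, at 4 μg/ml in phosphate buffer pH 7.4 with 200 μM bacitracin, reacted with compound and 10 μM substrate for 2 h at room temperature. Cyclo(His-Pro) measured by RapidFire MS against an isotope internal standard. IC50 from 16-point curves.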

Row | IC50 [nM] | SMILES
1 | 5 | C[C@@H]1COc2nc(Cl)cnc2C(=O)N1C1CC2(C1)CN(S(=O)(=O)c1ccccc1F)C2 [Example 40, (7R)-3-chloro-8-[2-(2-fluorophenyl)sulfonyl-2-azaspiro[3.3]heptan-6-yl]-7-methyl-6,7-dihydropyrazino[2,3-f][1,4]oxazepin-9-one]
2 | 70 | CC[C@@H]1COc2ncc(F)cc2C(=O)N1C1CC2(C1)CN(S(=O)(=O)c1ccccc1F)C2 [Example 41]
3 | 9 | C[C@@H]1COc2nc(F)ccc2C(=O)N1C1CC2(C1)CN(S(=O)(=O)c1ccccc1F)C2 [Example 42]
4 | 32 | CC[C@@H]1COc2nc(F)ccc2C(=O)N1C1CC2(C1)CN(S(=O)(=O)c1ccccc1F)C2 [Example 43]
5 | 14 | C[C@@H]1COc2nc(C(F)(F)F)ncc2C(=O)N1C1CC2(C1)CN(S(=O)(=O)c1ccccc1F)C2 [Example 44]
6 | 42 | C[C@@H]1COc2cc(C3CC3)ncc2C(=O)N1C1CC2(C1)CN(S(=O)(=O)c1ccccc1[N+](=O)[O-])C2 [Example 53]
7 | 54 | C[C@@H]1COc2nc(C3CC3)ccc2C(=O)N1C1CC2(C1)CN(S(=O)(=O)c1ccccc1[N+](=O)[O-])C2 [Example 55]
8 | 8 | C[C@@H]1COc2nc(C(F)(F)F)ccc2C(=O)N1C1CC2(C1)CN(S(=O)(=O)c1ccccc1F)C2 [Example 56]
9 | 253 | C[C@@H]1COc2nc(C(F)(F)F)ccc2C(=O)N1C1CC2(C1)CN(S(=O)(=O)c1ccccc1[N+](=O)[O-])C2 [Example 57]
10 | 180 | Cc1nc2c(cc1F)C(=O)N(C1CC3(C1)CN(S(=O)(=O)c1ccccc1[N+](=O)[O-])C3)[C@H](C)CO2 [Example 58]
11 | 49 | O=C1c2cccnc2OC[C@@H](C2CC2)N1C1CC2(C1)CN(S(=O)(=O)c1ccccc1F)C2 [Example 60]
12 | 653 | O=C1c2cccnc2OCC2(CC2)N1C1CC2(C1)CN(S(=O)(=O)c1ccccc1F)C2 [Example 61]
13 | 393 | O=C1c2ccc(C(F)(F)F)nc2OCC2(CC2)N1C1CC2(C1)CN(S(=O)(=O)c1ccccc1F)C2 [Example 62]
14 | 120 | O=C1c2cccnc2CC(C(F)(F)F)N1C1CC2(C1)CN(S(=O)(=O)c1ccccc1F)C2 (centres unmarked) [Example 68]
15 | 66 | CCn1c2ccccc2c(=O)n1C1CC2(C1)CN(S(=O)(=O)c1cc(C)ccc1F)C2 [Example 69]
16 | 25 | Cc1ccc(F)c(S(=O)(=O)N2CC3(CC(N4C(=O)c5cccnc5OCC4C)C3)C2)c1 (centres unmarked) [Example 70, 4-[2-(2-fluoro-5-methyl-phenyl)sulfonyl-2-azaspiro[3.3]heptan-6-yl]-3-methyl-2,3-dihydropyrido[3,2-f][1,4]oxazepin-5-one]
17 | 85 | CC1COc2ncccc2C(=O)N1C1CC2(C1)CN(S(=O)(=O)c1ccccc1)C2 (centres unmarked) [Example 84, 4-[2-(benzenesulfonyl)-2-azaspiro[3.3]heptan-6-yl]-3-methyl-2,3-dihydropyrido[3,2-f][1,4]oxazepin-5-one]
18 | 23 | Cc1nc2c(s1)C(=O)N(C1CC3(C1)CN(S(=O)(=O)c1ccccc1F)C3)[C@H](C)CC2 [Example 90]
19 | 8 | C[C@@H]1CCc2nc(C(C)(F)F)sc2C(=O)N1C1CC2(C1)CN(S(=O)(=O)c1ccccc1F)C2 [Example 91]
20 | 4 | C[C@@H]1CCc2nc([C@H]3C[C@H]3F)sc2C(=O)N1C1CC2(C1)CN(S(=O)(=O)c1ccccc1F)C2 [Example 95]
21 | 2 | C[C@@H]1CCc2nc([C@@H]3C[C@@H]3F)sc2C(=O)N1C1CC2(C1)CN(S(=O)(=O)c1ccccc1F)C2 [Example 96]
22 | 3 | C[C@@H]1CCc2nc(C3(C(F)(F)F)CC3)sc2C(=O)N1C1CC2(C1)CN(S(=O)(=O)c1ccccc1F)C2 [Example 97]
23 | 16 | Cc1snc2c1CC[C@@H](C)N(C1CC3(C1)CN(S(=O)(=O)c1ccccc1F)C3)C2=O [Example 99]
24 | 16 | Cc1nsc2c1C(=O)N(C1CC3(C1)CN(S(=O)(=O)c1ccccc1F)C3)[C@H](C)CC2 [Example 100]

Row | IC50 [nM] | SMILES
25 | 14 | C[C@@H]1CCc2oc(C3CC3)nc2C(=O)N1C1CC2(C1)CN(S(=O)(=O)c1ccccc1F)C2 [Example 101]
26 | 10 | Cc1onc2c1CC[C@@H](C)N(C1CC3(C1)CN(S(=O)(=O)c1ccccc1F)C3)C2=O [Example 103]
27 | 14 | CC1CCc2c(noc2C2CC2)C(=O)N1C1CC2(C1)CN(S(=O)(=O)c1ccccc1F)C2 (centres unmarked) [Example 104]
28 | 14 | Cc1noc2c1C(=O)N(C1CC3(C1)CN(S(=O)(=O)c1ccccc1F)C3)[C@H](C)CC2 [Example 105]
29 | 3 | C[C@@H]1CCc2nc(C3(F)CC3)sc2C(=O)N1C1CC2(C1)CN(S(=O)(=O)c1ccccc1F)C2 [Example 109, (6R)-2-(1-fluorocyclopropyl)-5-[2-(2-fluorophenyl)sulfonyl-2-azaspiro[3.3]heptan-6-yl]-6-methyl-7,8-dihydro-6H-thiazolo[5,4-c]azepin-4-one]
30 | 4 | CC(C)c1nc2c(s1)C(=O)N(C1CC3(C1)CN(S(=O)(=O)c1ccccc1F)C3)[C@H](C)CC2 [Example 110, (6R)-5-[2-(2-fluorophenyl)sulfonyl-2-azaspiro[3.3]heptan-6-yl]-2-isopropyl-6-methyl-7,8-dihydro-6H-thiazolo[5,4-c]azepin-4-one]
31 | 60 | CC1C=Cc2nc(C(F)(F)F)ccc2C(=O)N1C1CC2(C1)CN(S(=O)(=O)c1ccccc1F)C2 (centres unmarked) [Example 111, 6-[2-(2-fluorophenyl)sulfonyl-2-azaspiro[3.3]heptan-6-yl]-7-methyl-2-(trifluoromethyl)-7H-pyrido[3,2-c]azepin-5-one]
32 | 116 | Cc1nc2c(s1)C(=O)N(C1CC3(C1)CN(S(=O)(=O)c1ccccc1F)C3)[C@H](C)C=C2 [Example 116]
33 | 46 | C[C@@H]1C=Cc2nc(C(C)(F)F)sc2C(=O)N1C1CC2(C1)CN(S(=O)(=O)c1ccccc1F)C2 [Example 117]
34 | 21 | C[C@@H]1C=Cc2nc(C3(F)CC3)sc2C(=O)N1C1CC2(C1)CN(S(=O)(=O)c1ccccc1F)C2 [Example 121]
35 | 15 | C[C@@H]1C=Cc2nc([C@@H]3C[C@@H]3F)sc2C(=O)N1C1CC2(C1)CN(S(=O)(=O)c1ccccc1F)C2 [Example 122]
36 | 15 | C[C@@H]1C=Cc2nc([C@H]3C[C@H]3F)sc2C(=O)N1C1CC2(C1)CN(S(=O)(=O)c1ccccc1F)C2 [Example 123]
37 | 17 | C[C@@H]1C=Cc2nc(C3(C(F)(F)F)CC3)sc2C(=O)N1C1CC2(C1)CN(S(=O)(=O)c1ccccc1F)C2 [Example 124]
38 | 24 | Cc1snc2c1C=C[C@@H](C)N(C1CC3(C1)CN(S(=O)(=O)c1ccccc1F)C3)C2=O [Example 126]
39 | 21 | Cc1nsc2c1C(=O)N(C1CC3(C1)CN(S(=O)(=O)c1ccccc1F)C3)[C@H](C)C=C2 [Example 127]
40 | 224 | C[C@@H]1C=Cc2oc(C3CC3)nc2C(=O)N1C1CC2(C1)CN(S(=O)(=O)c1ccccc1F)C2 [Example 128]
41 | 136 | Cc1onc2c1C=C[C@@H](C)N(C1CC3(C1)CN(S(=O)(=O)c1ccccc1F)C3)C2=O [Example 130]
42 | 131 | Cc1noc2c1C(=O)N(C1CC3(C1)CN(S(=O)(=O)c1ccccc1F)C3)[C@H](C)C=C2 [Example 132]
43 | 4 | CC1C2C(c3nc(C4CC4)sc3C(=O)N1C1CC3(C1)CN(S(=O)(=O)c1ccccc1F)C3)C2(F)F (stereo not drawn) [Example 133, (2R*,4S*,5R*)-10-cyclopropyl-3,3-difluoro-6-[2-(2-fluorophenyl)sulfonyl-2-azaspiro[3.3]heptan-6-yl]-5-methyl-9-thia-6,11-diazatricyclo[6.3.0.02.4]undec-1(8),10-dien-7-one]
44 | 2 | C[C@@H]1COc2cc(N3CCOCC3)ncc2C(=O)N1C1CC2(C1)CN(S(=O)(=O)c1ccccc1F)C2 [Example 134, (3R)-4-[2-(2-fluorophenyl)sulfonyl-2-azaspiro[3.3]heptan-6-yl]-3-methyl-8-morpholino-2,3-dihydropyrido[3,4-f][1,4]oxazepin-5-one]
45 | 1 | CCCCN(C)c1cc2c(cn1)C(=O)N(C1CC3(C1)CN(S(=O)(=O)c1ccccc1F)C3)[C@H](C)CO2 [Example 135]
46 | 1 | C[C@@H]1COc2cc(NC3CCCC3)ncc2C(=O)N1C1CC2(C1)CN(S(=O)(=O)c1ccccc1F)C2 [Example 136]
47 | 1 | C[C@@H]1COc2cc(N(C)C3CCCC3)ncc2C(=O)N1C1CC2(C1)CN(S(=O)(=O)c1ccccc1F)C2 [Example 137]

Reference: patent US20260132127A1, “NOVEL SPIRO COMPOUND” (MITSUBISHI TANABE PHARMA CORPORATION, priority 2021, published 2026)
